Experimental findings from ChEMBL document CHEMBL5244260, “Aldose reductase and protein tyrosine phosphatase 1B inhibitors as a promising therapeutic approach for diabetes mellitus” (Eur J Med Chem, 2020) are described below.

For test [1], the target named is T1, Tyrosine-protein phosphatase non-receptor type 1 (Homo sapiens, UniProt P18031).
T1 sequence (P18031 whole entry): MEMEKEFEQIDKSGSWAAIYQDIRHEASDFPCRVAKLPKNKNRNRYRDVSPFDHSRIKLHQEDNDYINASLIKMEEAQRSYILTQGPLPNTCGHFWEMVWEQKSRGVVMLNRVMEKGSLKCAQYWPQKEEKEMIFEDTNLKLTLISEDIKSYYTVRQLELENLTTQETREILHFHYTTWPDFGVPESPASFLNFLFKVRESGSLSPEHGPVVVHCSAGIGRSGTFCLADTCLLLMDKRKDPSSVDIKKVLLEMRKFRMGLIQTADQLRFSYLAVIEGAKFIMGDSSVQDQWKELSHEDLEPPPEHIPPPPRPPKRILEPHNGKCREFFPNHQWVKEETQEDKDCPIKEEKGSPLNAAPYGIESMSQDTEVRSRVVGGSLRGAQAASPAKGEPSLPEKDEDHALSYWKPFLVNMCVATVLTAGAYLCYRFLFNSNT
Kind of test: Inhibition of PTP1B (1 to 321 residues) (unknown origin) expressed in Escherichia coli BL21 assessed as inhibition constant using pNPP as substrate incubated for 2 to 3 min by spectrophotometry analysis.

The target of test [2] is T2, Receptor-type tyrosine-protein phosphatase alpha (Homo sapiens, UniProt P18433). Kind of test: Inhibition of human PTPalpha assessed as inhibition constant.
T2 sequence (P18433 whole entry): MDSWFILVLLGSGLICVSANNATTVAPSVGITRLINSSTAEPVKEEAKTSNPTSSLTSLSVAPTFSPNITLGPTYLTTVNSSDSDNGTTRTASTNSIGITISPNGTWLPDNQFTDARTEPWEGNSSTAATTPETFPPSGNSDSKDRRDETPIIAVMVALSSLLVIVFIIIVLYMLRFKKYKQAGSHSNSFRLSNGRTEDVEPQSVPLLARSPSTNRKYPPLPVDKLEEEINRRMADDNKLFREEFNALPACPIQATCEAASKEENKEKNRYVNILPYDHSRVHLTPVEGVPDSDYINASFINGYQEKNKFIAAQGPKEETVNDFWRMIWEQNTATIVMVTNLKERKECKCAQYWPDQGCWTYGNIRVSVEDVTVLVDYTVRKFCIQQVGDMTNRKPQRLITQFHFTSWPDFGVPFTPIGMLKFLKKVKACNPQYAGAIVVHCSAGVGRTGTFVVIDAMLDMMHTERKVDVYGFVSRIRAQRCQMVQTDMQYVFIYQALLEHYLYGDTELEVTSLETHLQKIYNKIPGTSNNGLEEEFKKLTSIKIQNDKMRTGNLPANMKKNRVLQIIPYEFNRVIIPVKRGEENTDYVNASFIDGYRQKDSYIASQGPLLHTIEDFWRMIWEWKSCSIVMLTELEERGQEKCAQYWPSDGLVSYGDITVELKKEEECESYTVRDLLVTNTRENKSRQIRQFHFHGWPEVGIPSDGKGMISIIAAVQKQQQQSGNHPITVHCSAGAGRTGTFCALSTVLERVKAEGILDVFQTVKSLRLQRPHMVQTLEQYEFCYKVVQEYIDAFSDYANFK
Test [3] concerns the target Receptor-type tyrosine-protein phosphatase F (Rattus norvegicus, UniProt Q64604). Kind of test: Inhibition of rat recombinant LAR expressed in Escherichia coli assessed as inhibition constant using pNPP as substrate incubated for 5 mins by […].
Test [4] concerns the target Dual specificity protein phosphatase 3 (Homo sapiens, UniProt P51452). Briefly: Inhibition of human recombinant VHR expressed in Escherichia coli BL21 (DE3) assessed as inhibition constant using pNPP as substrate by stopped-flow spectrophotometer.
The target of test [5] is T1, Tyrosine-protein phosphatase non-receptor type 1. Kind of test: Inhibition of human recombinant PTP1B (1 to 321 residues) expressed in Escherichia coli BL21 (DE3) assessed as inhibition constant using pNPP as substrate by Michaelis-Menten analysis.
Test [6] deals with Mus musculus. Kind of test: Hypoglycemic activity in alloxan monohydrate induced diabetic model of BALB/c mouse assessed as decrease in glucose level at 10 mg/kg,po measured upto 8 hrs by glucometer. On the set-up: scale not given: the % may be the effect or the level left. The format is functional.
Test [7] concerns the target T3, Aldo-keto reductase family 1 member B1 (Homo sapiens, UniProt P15121). Kind of test: Inhibition of ALR2 (unknown origin) using D,L-glyceraldehyde as substrate incubated for 10 mins in presence of NADPH by UV-spectrophotometric assay.
Test [8] has as its target T4, Tyrosine-protein phosphatase non-receptor type 7 (Homo sapiens, UniProt P35236).
T4 sequence (P35236 whole entry): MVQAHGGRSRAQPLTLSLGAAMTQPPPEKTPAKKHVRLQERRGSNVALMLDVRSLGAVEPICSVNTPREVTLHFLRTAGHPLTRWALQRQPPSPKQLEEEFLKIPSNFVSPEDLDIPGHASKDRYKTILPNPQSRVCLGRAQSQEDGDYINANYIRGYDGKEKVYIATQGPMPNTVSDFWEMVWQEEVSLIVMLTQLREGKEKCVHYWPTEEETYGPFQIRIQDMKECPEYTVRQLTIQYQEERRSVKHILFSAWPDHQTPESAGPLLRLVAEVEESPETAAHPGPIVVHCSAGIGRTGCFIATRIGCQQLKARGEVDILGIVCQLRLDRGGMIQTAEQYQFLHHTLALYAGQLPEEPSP
Briefly: Inhibition of HEPTP (unknown origin).

Test [9] deals with T2, Receptor-type tyrosine-protein phosphatase alpha. Briefly: Inhibition of PTPalpha (unknown origin).
For test [10], the system named is Mus musculus. Kind of test: Anti-diabetic activity in ob/ob diabetic C57BL/6J mouse assessed as decrease in glucose level at 25 mg/kg,po dosed for 4 days. Also on record: scale not given: the % may be the effect or the level left. The settings on record: time 4 day. The format is functional.
Test [11] is described as follows: Inhibition of ALR2 in Wistar rat using D,L-glyceraldehyde as substrate preincubated for 10 mins in presence of NADPH followed by substrate addition and measured after 4 mins by spectrophotometric assay.
The target of test [12] is T1, Tyrosine-protein phosphatase non-receptor type 1. Kind of test: Inhibition of human PTP1B using pNPP as substrate incubated for 30 min by UV-Visible spectrophotometer assay.
Test [13] has as its target Aldo-keto reductase family 1 member B1 (Rattus norvegicus, UniProt P07943). Briefly: Inhibition of Aldose reductase in rat lens using D,L-glyceraldehyde as substrate in presence of NADPH by spectrophotometric assay. The format is tissue-based.
The species entered for test [14] is Homo sapiens. Kind of test: Selectivity ratio of IC50 for PTP1B (unknown origin) to IC50 for TCPTP (unknown origin).
Test [15] addresses T1, Tyrosine-protein phosphatase non-receptor type 1. Kind of test: Inhibition of PTP1B (unknown origin) using flurogenic substrate by fluorescence plate reader assay.
The species named for test [16] is Homo sapiens. Kind of test: Selectivity ratio of IC50 for PTP1B (unknown origin) to IC50 for YOP (unknown origin).
The species named for test [17] is Homo sapiens. Kind of test: Selectivity ratio of IC50 for PTP1B (unknown origin) to IC50 for Protein phosphatase-lambda (unknown origin).
For test [18], the species on record is Homo sapiens. Kind of test: Selectivity ratio of IC50 for PTP1B (unknown origin) to IC50 for LAR (unknown origin).
Test [19] is filed under the species Homo sapiens. Briefly: Selectivity ratio of IC50 for PTP1B (unknown origin) to IC50 for PP1 (unknown origin).
The target in test [20] is T1, Tyrosine-protein phosphatase non-receptor type 1. Briefly: Inhibition of PTP1B (unknown origin) assessed as inhibition constant using pNPP as substrate.
Test [21] shares this target. Briefly: Inhibition of PTP1B (unknown origin) using pNPP as substrate.
Test [22] shares this target. Briefly: Inhibition of human recombinant PTP1B (1 to 321 residues) expressed in Escherichia coli BL21 assessed as inhibition constant using pNPP as substrate.
Test [23] addresses T3, Aldo-keto reductase family 1 member B1. Kind of test: Inhibition of human ALR2 expressed in Escherichia coli BL21 (DE3) assessed as inhibition constant using D,L-glyceraldehyde as substrate in presence of NADPH by Michaelis-Menten analysis.
Test [24] in a line: Inhibition of ALR2 in rat lens using D,L-glyceraldehyde as substrate preincubated for 10 mins in presence of NADPH followed by substrate addition and measured after 20 mins by spectrophotometric assay. The format is tissue-based.

For orientation: Ki means a dissociation constant, usually derived from enzyme kinetics or from competition with a known ligand. As a reminder, the IC50 is the concentration that inhibits the measured activity by half.

Receptor-type tyrosine-protein phosphatase F, sequence (Q64604 whole entry): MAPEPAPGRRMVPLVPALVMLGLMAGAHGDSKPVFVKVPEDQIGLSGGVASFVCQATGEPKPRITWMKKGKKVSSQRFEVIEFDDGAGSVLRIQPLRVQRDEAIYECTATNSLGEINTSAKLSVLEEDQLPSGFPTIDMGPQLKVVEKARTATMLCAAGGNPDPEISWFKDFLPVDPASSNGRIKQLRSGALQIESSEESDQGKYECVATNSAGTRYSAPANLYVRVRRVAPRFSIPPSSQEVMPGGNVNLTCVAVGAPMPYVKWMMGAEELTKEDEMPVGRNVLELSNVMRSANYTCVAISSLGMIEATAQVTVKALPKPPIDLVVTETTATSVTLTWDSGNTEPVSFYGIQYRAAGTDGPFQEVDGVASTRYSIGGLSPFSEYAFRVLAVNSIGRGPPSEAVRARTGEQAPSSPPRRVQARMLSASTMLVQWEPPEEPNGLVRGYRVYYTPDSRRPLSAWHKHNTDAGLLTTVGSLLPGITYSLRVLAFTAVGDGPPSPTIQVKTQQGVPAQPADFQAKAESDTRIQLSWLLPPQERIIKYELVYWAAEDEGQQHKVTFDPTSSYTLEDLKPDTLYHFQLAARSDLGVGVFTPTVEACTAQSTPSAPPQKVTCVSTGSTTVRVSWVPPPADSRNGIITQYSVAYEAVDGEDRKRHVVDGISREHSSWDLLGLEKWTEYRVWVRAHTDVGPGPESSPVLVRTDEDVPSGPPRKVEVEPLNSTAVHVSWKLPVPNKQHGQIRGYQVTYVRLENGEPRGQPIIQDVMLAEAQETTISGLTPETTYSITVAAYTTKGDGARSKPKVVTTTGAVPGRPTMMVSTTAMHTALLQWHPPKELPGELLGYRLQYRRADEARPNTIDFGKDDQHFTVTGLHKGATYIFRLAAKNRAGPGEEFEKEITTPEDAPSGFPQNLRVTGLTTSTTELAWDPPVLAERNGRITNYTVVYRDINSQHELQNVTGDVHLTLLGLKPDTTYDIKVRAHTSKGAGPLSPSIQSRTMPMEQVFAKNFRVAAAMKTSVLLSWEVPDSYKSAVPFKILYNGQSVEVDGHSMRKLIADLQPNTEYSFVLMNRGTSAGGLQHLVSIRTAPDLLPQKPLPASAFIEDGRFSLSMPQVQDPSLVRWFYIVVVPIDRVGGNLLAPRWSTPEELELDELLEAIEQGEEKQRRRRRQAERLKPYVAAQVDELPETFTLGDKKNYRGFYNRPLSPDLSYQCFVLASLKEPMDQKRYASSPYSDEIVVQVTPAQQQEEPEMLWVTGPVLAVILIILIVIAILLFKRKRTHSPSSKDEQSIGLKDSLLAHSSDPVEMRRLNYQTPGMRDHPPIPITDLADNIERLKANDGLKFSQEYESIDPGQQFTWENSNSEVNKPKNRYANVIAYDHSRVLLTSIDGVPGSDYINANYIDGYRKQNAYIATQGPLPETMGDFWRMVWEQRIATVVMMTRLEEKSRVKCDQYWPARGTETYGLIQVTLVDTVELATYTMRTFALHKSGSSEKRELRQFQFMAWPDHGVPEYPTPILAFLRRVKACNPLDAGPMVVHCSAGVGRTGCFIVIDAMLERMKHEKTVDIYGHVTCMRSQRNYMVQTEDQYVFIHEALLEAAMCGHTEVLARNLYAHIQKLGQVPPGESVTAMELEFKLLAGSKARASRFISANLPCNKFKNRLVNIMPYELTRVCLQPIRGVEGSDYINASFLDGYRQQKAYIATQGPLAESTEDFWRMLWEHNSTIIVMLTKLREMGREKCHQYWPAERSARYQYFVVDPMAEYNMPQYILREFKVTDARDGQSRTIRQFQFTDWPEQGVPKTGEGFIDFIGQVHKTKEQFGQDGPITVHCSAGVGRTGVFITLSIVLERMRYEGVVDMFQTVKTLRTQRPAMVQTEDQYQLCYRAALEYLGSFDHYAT
Dual specificity protein phosphatase 3, sequence (P51452 whole entry, the tested form may be a part): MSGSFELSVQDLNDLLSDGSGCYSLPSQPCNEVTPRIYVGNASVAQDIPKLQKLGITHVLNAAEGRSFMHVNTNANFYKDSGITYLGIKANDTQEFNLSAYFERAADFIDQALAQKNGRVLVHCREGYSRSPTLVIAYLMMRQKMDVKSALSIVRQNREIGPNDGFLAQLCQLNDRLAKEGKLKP

As for `CCCCCCCCCCCCCCC(=O)N[C@@H](Cc1ccc(C(F)(F)P(=O)(O)O)cc1)C(=O)N[C@@H](CC(=O)O)C(=O)N[C@@H](Cc1ccc(C(F)(F)P(=O)(O)O)cc1)C(N)=O`, in [1], the Ki amounted to 0.025 µM.

As for `O=C(CCc1ccc(C(F)(F)P(=O)(O)O)cc1)Nc1cc(NC(=O)CCc2ccc(C(F)(F)P(=O)(O)O)cc2)cc(C(=O)NCCc2ccc(C(=O)O)cc2)c1`, the inhibition constant Ki stood at 120 µM in [2], 100 µM in test [3], 3600 µM in [4] and 0.93 µM in [5]. Take `O=C1NC(=O)C2(CCCCC2)N1S(=O)(=O)c1ccc(Cl)s1`: the Activity with Mus musculus [6] came to 79%. Further, the concentration for half-maximal inhibition (IC50) in test [7] came to 0.47 µM.

As to `O=C(O)[C@H](Cc1ccccc1)Oc1ccc(-c2ccc(-c3c(Cc4ccccc4)oc4ccccc34)cc2)cc1`, the IC50 in [8] came to 7.1 µM; in test [9] it was 33.7 µM. Also, the Activity in the test on Mus musculus [10] came to 27%.

Regarding `O=C(O)Cn1c(=O)c(Cc2ccc(Br)cc2F)nc2ccc(F)cc21`, the IC50 in [11] came to 0.00644 µM. `C[C@@]12CCC[C@](C)(C(=O)O)[C@H]1CCc1cc(OCC(=O)Oc3ccccc3C(=O)O)ccc12` returned a half-maximal inhibitory concentration (IC50) in test [12] of 2.9 µM.

On to `CC(C)NC(=O)NS(=O)(=O)c1ccc(-n2nc(-c3ccc(F)cc3)ccc2=O)cc1`, for which the IC50 in test [13] was 45 µM. Consider `COC(=O)C(O)c1ccc(NC(=O)CCCCn2cc(COc3ccc(-c4cc(C(=O)O)no4)cc3)nn2)cc1` (stereo not given), for which the Ratio IC50 in the test listed under Homo sapiens [14], in the test listed under Homo sapiens [16], in the test filed under Homo sapiens [17], in the test filed under Homo sapiens [18] and in the test filed under Homo sapiens [19] was 10 in each case. For the same molecule, the IC50 in [15] worked out at 4.7 µM. As for `CCCCCNC(=O)[C@H](Cc1ccc(OC(C(=O)O)C(=O)O)cc1)NC(=O)[C@H](Cc1ccccc1)NC(=O)CCC(=O)O`, the Ki in test [20] stood at 1.2 µM. Turning to `O=C(c1ccccc1)C(Cc1ccc2cc(Br)c(C(F)(F)P(=O)(O)O)cc2c1)(c1ccc2cc(C(F)(F)P(=O)(O)O)c(Br)cc2c1)n1nnc2ccccc21` (stereo not given), the Ratio IC50 in the test filed under Homo sapiens [14] turned out to be 116. Moreover, in test [21], 0.005 µM corresponded to half-maximal inhibition (IC50). `CCCCCNC(=O)[C@H](Cc1ccc(OCC(=O)O)c(C(=O)O)c1)NC(=O)[C@H](Cc1ccccc1)NC(=O)CCC(=O)O`: the inhibition constant Ki in test [22] amounted to 0.25 µM. As for `N#Cc1ccc(CNC(=O)c2ccc(Cl)cc2OCC(=O)O)cc1[N+](=O)[O-]`, in test [23], the Ki is 0.107 µM. Take `Cc1ccc(C(=O)/C(=C/c2ccc(O)c(O)c2)C(=O)O)cc1`: the IC50 in test [24] was 0.49 µM.
